Laboratory results from patent US20220008537A1, “COMPOUNDS FOR PHOTODYNAMIC THERAPY AND RELATED USES” (GEORGIA STATE UNIVERSITY RESEARCH FOUNDATION, INC., priority 2018, published 2022).

Tests used:
pUC19 plasmid DNA = experiment: DNA photocleavage inhibition induced by chemical additives; assay type: biochemical; details: 20 μM dye, 38 μM bp pUC19, 830 nm 300 mW LED laser, pH 7.0
Protocol: Individual DNA cleavage reactions containing 5 μM to 50 μM concentrations of cyanine dye, 38 μM bp of pUC19 plasmid, and 10 mM of sodium phosphate pH 7.0 were prepared in a total volume of 40 μL. In order maintain reaction temperature at 10° C., 22° C., or 37° C., the samples were placed in a thermometer-fitted metal block that was either heated, kept at room temperature, or immersed in an ice bath. While monitoring temperature with the thermometer, the samples were either kept in the dark or were irradiated at time interval ranging from 5 min to 120 min using a light emitting diode (LED) laser (LaserLands) with a peak emission wavelength of either 532 nm (100 mW), 808 nm (300 mW), or 830 nm (300 mW). At the end of the irradiation time interval, a total of 3 μL of electrophoresis loading buffer containing 15.0% (w/v) ficoll and 0.025% (w/v) bromophenol blue) was added to each reaction and 20 μL of the resulting solution was added to one of the wells of 1.5% agarose gel stained with ethidium bromide (0.5 μg/mL, final concentration). Completely loaded gels were then electrophoresed for 60 min at 105 V in a Bio-Rad Laboratories gel box using 1×tris-acetate-EDTA (TAE) containing 0.5 μg/mL ethidium bromide as the running buffer. Electrophoresed gels were visualized at 302 nm with a VWR Scientific LM-20E transilluminator and then photographed with a UVP PhotoDoc-ItTM Imaging System. For quantitating the gels, ImageQuant version 5.2 software was employed. The DNA photocleavage yields were then calculated using the formula: Percent Photocleavage=[(Linear+Nicked DNA)/(Linear+Nicked+Supercoiled DNA)]×100. In an argon-purged glove box, 40 μL photocleavage reactions containing 10 mM sodium phosphate buffer pH 7.0, 20 μM of cyanine dye, and 38 μM bp of pUC19 plasmid were prepared from solutions bubbled with argon and then irradiated at 830 nm for 30 min The procedure was repeated using aerated solutions in a glove box purged with air. A second set of reactions containing 10 mM of sodium phosphate buffer pH 7.0, 38 μM bp pUC19 plasmid DNA and 20 μM of dye were prepared in the presence and absence of either 100 mM of the singlet oxygen scavenger sodium azide, 100 mM of the hydroxyl radical scavenger sodium benzoate, or 84% D2O (v/v). […] After the irradiation, the above DNA reactions were electrophoresed on 1.5% non-denaturing agarose gels, visualized, and quantitated as just described. The percent change in DNA photocleavage was then calculated using the formula, where additive stands for either argon, sodium azide, sodium benzoate, or D2O: Percent Change in Cleavage=[(% Total of Linear and Nicked […] additive-% Total of Linear and Nicked DNAwithout additive)/(% Total of Linear and Nicked DNAwithout additive)]×100. […]

## CN1C=C/C(=C/C=C(Cl)/C=C/c2cc[n+](C)c3ccccc23)c2ccccc21.[I-] [Dye 5, 4-((1E,3Z)-3-chloro-5-((Z)-1-methylquinolin-4(1H)-ylidene)penta-1,3-dien-1-yl)-1-methylquinolin-1-ium iodide]
other
  melting point: > 260 °C
pUC19 plasmid DNA; Reagent Argon (targets 1O2 & •OH)
  Photocleavage inhibition (%): 67 ± 3%
pUC19 plasmid DNA; Reagent D2O 84% (v/v) (target 1O2)
  Photocleavage inhibition (%): 6 ± 1%
pUC19 plasmid DNA; Reagent Sodium azide 100 mM (targets 1O2 > •OH)
  Photocleavage inhibition (%): 26 ± 3%
pUC19 plasmid DNA; Reagent Sodium benzoate 100 mM (target •OH)
  Photocleavage inhibition (%): 31 ± 2%

## CN1C=C/C(=C/C=C/C=C/c2cc[n+](C)c3ccccc23)c2ccccc21.[I-] [Dye 4, 1-methyl-4-((1E,3E)-5-((Z)-1-methylquinolin-4(1H)-ylidene)penta-1,3-dien-1-yl)quinolin-1-ium iodide]
other
  melting point: 239 °C (dec.)
